Results reported in US20240299591A1, “Antimicrobial Peptides and Their Use” (priority 2021, published 2024).
Converted amounts (≈) assume the structure as drawn. Where a SMILES comes first, the peptide text is derived from it.

Legend:
A. fumigatus (MFIG001) = test: Minimum inhibitory concentration, A. fumigatus; format: cell-based, Aspergillus fumigatus; conditions: 5 × 10^5, 10% Vogel's
Protocol: Aspergillus fumigatus strains were grown on Sabouraud dextrose agar (SAB agar) at 37° C. for 3 days. Conidia were collected in phosphate-buffered saline supplemented with 0.1% tween-20 (PBST) by gently scraping a spatula over the fungal colony surface. The spore solutions were then passed through autoclaved Miracloth to remove any hyphal residues and stored at 4° C. The spores were counted and the concentrations was determined in the same was as described for N. crassa.

F. oxysporum = test: Minimum inhibitory concentration, F. oxysporum; format: cell-based, Fusarium oxysporum; conditions: 5 × 10^5, 10% Vogel's
Protocol: F. oxysporum was grown in liquid potato dextrose broth (PDB) at 28° C. with shaking (170 rpm) for 5 days. The suspension was filtered through folded Miracloth (4 layers) and centrifuged for 10 min at RT. The supernatant was discard and the pellet was resuspend in 1.5 mL of sterile dH2O and quantified.

[1] = tested on: C. inconspicua (ATCC 16783); format: cell-based
Protocol: (§1) Candida strains used were grown on SAB agar at 37° C. for 3 days, and the Cryptococcus strain was grown on SAB agar at 37° C. for 6 days. Cells were harvest using sterile inoculation loop by taking a single colony and resuspending in phosphate-buffered saline supplemented with 0.1% tween-20 (PBST). The concentration of cells was then quantified with a haemocytometer. For the determination of the minimum inhibitory concentration, cell density was adjusted to 10^6 cells/mL with 20% liquid Vogel's medium.

C. auris = format: cell-based
Protocol: as §1

C. krusei (ATCC 6258) = format: cell-based
Protocol: as §1

C. albican = format: cell-based
Protocol: as §1

C. glabrata (NCPF 3309) = format: cell-based
Protocol: as §1

[2] = Viability of reconstructed cornea-like epithelium (eye irritation model); format: cell-based; conditions: human, reconstructed cornea-like epithelium (RhCE, EpiOcular™)
Protocol: (§2) FIG. 4a is a graph of the viability reconstructed cornea-like epithelium (RhCE, EpiOcular™) after incubation with MFIGA001. NC=Negative Control; PC=Positive Control. FIG. 4b is a graph of the viability reconstructed cornea-like epithelium (RhCE, EpiOcular™) after incubation with 10 µM of MFIGA001a and MFIGAF001b. NC=Negative Control; PC=Positive Control; A2=MFIGAF001a; and B1=MFIGAF001b.
(§3) MFIGAF001 was also assessed independently by a CRO (Evotec) in an OECD compliant reconstructed cornea-like epithelial cell model (RhCE, EpiOcular™).

[3] = tested on: reconstructed cornea-like epithelium (RhCE, EpiOcular™); test: as above; format: cell-based
Protocol: as §2, §3

## N=C(N)NCCC[C@@H]1NC(=O)CNC(=O)[C@H](Cc2c[nH]c3ccccc23)NC(=O)[C@H](Cc2ccccc2)NC(=O)[C@H](Cc2c[nH]c3ccccc23)NC(=O)[C@@H](Cc2ccccc2)NC(=O)[C@H](CCCCN)NC(=O)[C@H](CCCCN)NC1=O [MFIGAF001, Cyclo(Arg-Lys-Lys-phe-Trp-Phe-Trp-Gly)] (HELM PEPTIDE1{F.W.G.R.K.K.[dF].W}$PEPTIDE1,PEPTIDE1,1:R1-8:R2$$$V2.0)
A. fumigatus (MFIG001)
  MIC: 5 µM (≈ 5.68 µg/mL)
F. oxysporum
  MIC: 6.25 µM (≈ 7.1 µg/mL)
[1]
  MIC: 2 µM (≈ 2.27 µg/mL)
C. auris
  MIC: 2 µM (≈ 2.27 µg/mL)
C. krusei (ATCC 6258)
  MIC: 3.9 µM (≈ 4.43 µg/mL)
C. albican
  MIC: 2 µM (≈ 2.27 µg/mL)
C. glabrata (NCPF 3309)
  MIC: 3.9 µM (≈ 4.43 µg/mL)
[2]
  viability at 100 µg/mL: 87.3%
  viability at 200 µg/mL: 87.2%
  viability at 400 µg/mL: 88.6%
  viability at 500 µg/mL: 93.7%
[3]
  Toxicity, reconstructed cornea-like epithelium (FIG. 4): no obvious toxicity
